Experimental data published in patent US11439619B2, “Phosphaplatin compounds as immuno-modulatory agents and therapeutic uses thereof” (Phosplatin Therapeutics Inc., priority 2017, dated 2022).

Tests used:
cancer cell models = assay: Pt accumulation in DNA and whole cell extracts of cancer cell models; assay type: cell-based; settings: previous work; compared with cisplatin or oxaliplatin exposure
Source text: PT-112 is a new chemical entity under clinical development in the US and the People's Republic of China, designed to minimize particular toxicities associated with traditional platinum agents and drug resistance stemming from DNA damage and repair. As a pyrophosphate-conjugated Pt-containing anti-neoplastic therapeutic, PT-112 differs from platinum therapies in both mechanism and toxicity. […] Nonetheless, PT-112 has potent cytotoxic activity in in vitro systems, implying a different spectrum of targets for PT-112 in comparison to traditional platinum compounds. We explored the activity and mechanism of action of PT-112 by investigating impacts on cancer related proteins and pathways, including those connected to immunogenic cell death (ICD), as well as how PT-112 potency is affected by DNA repair pathways. In addition, PT-112 anticancer activity, pharmacokinetics (PK), and toxicity were measured in multiple in vivo systems.

[1] = chronic neuropathy indicators after repeat doses over 4 weeks (DRG Pt, NCV); assay type: in vivo
CXF280 colon PDX = CXF280 colon PDX model; assay type: in vivo
[2] = tested on: PANC1 pancreatic cancer model; assay: PANC1 pancreatic cancer model; assay type: in vivo
p53 and MDM2 = assay: impact on p53 and MDM2 levels; assay type: cell-based
Source text: (§1) A high degree of correlation was observed between cis and carbo activity, but not between those agents and PT-112. A correlation between PT-112 and oxali was also observed, which led to investigation of cellular targets and mechanisms not shared by these two agents. […] These effects comprise the release of HMGB1 and ATP, the cell surface exposure of calreticulin (CRT), and the suppression of STATS.

murine TSA cells = assay: ATP release from TSA cells, luminometric assay; assay type: cell-based; settings: 48 hours, two concentrations
Method: FIG. 3 illustrates the release of adenosine triphosphate (ATP) from cells treated with PT-112. ATP in the media of cells after 48 hours of drug treatment was measured via a luminometric assay. PT-112 was tested in two concentrations, as was cisplatin (a negative control for ICD), in addition to a single concentration of mitoxantrone (a positive ICD control) and an untreated negative control sample. ATP release is indicative of ICD and involved in recruitment and activation of antigen-presenting cells.
PT-112 was also tested for its ability to release the DAMP ATP (FIG. 3), which is involved in the recruitment and activation of antigen-presenting cells. Here, murine TSA cells were exposed to either PT-112 at two different concentrations, cisplatin (a negative control for ICD, also at two concentrations), mitoxantrone (a positive ICD control), or no drug control for 48 hours. Subsequently, ATP in the media was measured via a luminometric assay. […] This is again indicative of PT-112 robustly causing ICD.

CT26 cells = assay: FACS analysis of tumor tissue, CT26 allograft; assay type: in vivo, mice
Source text: FIG. 6 illustrates fluorescence-activated cell sorting (FACS) analysis of tumor biopsies from a mouse allograft experiment, whereby immune-competent mice were implanted with CT26 cells and were subsequently randomized into control, PT-112, anti-PD-L antibody, or combination treatment. Bars are normalized to the control group.
FIG. 7 illustrates the effect of various treatments on the ratios of different cell populations from tumor biopsies in a mouse allograft experiment using the CT26 cell line, where mice were randomized into vehicle control, PT-112, anti-PD-L antibody, and combination treatment groups. PT-112 treatment groups had large increases in the ratio of immunogenic to immunosuppressive cell types, indicating PT-112 induces a more immunogenic tumor microenvironment.
Additionally, tumor tissue was removed from additional treated mice and analyzed via FACS for differences in white blood cell populations.

[3] = tested on: HCT116 colorectal cancer cell line; assay: HMGB1 release from HCT116 cells, ELISA; assay type: cell-based; settings: HCT116, IC50 concentrations, 48 hours
Method: FIG. 1 illustrates the release of high mobility group box 1 (HMGB1) from cells treated with PT-112. HMGB1 in the media of cells after 48 hours of drug treatment was measured via ELISA. HMGB1 release is involved in ICD and antigen presentation to dendritic cells. Error bars indicate 1 SEM, and p values were generated using two-tailed t-tests.
(§2) Two such DAMPs are high mobility group box 1 (HMGB1) and calreticulin (CRT). HMGB1 is released from dying cells during ICD, whereas CRT migrates from the endoplasmic reticulum to the cell surface during ICD. To test if PT-112 exposure results in these events that are considered hallmarks of ICD, in vitro experiments using the HCT116 colorectal cancer cell line were conducted.
Subsequently, HMGB1 in the media of the cells was measured via ELISA.

[4] = tested on: HCT116 colorectal cancer cell line; assay: calreticulin (CRT) cell surface exposure in HCT116 cells, flow cytometry; assay type: cell-based; settings: HCT116, IC50 concentrations, 48 hours
Method: FIG. 2 illustrates the cell surface exposure of calreticulin (CRT) from cells treated with PT-112. CRT cell surface expression was measured via flow cytometry after 48 hours of drug treatment. A peak present to the right of the main peak indicates cells staining positive for CRT, a hallmark of ICD and an indicator of phagocyte targeting.
as §2
Cells were then stained with an anti-CRT antibody, and positive staining was detected via flow cytometry.

[5] = design: species or system rats; settings: rat, in vivo
Source text: Importantly, Pt in plasma, but not present in the PUF, is believed to be protein-bound and not bioavailable for therapeutic benefit.

[6] = tested on: broadly platinum-resistant cell panel; assay: IC50 values in a broadly platinum-resistant cell panel; assay type: cell-based
Source text: as §1

[7] = renal function and tolerability in rats; assay type: in vivo
[8] = tested on: GXF97 gastric patient-derived xenograft; assay: GXF97 gastric patient-derived xenograft (PDX) model; assay type: in vivo; settings: higher doses not tolerated by all mice, data not shown
MC38 cells = assay: FACS analysis of tumor tissue, MC38 allograft; assay type: in vivo, mice
Source text: FIG. 8 illustrates fluorescence-activated cell sorting (FACS) analysis of tumor biopsies from a mouse allograft experiment, whereby immune-competent mice were implanted with MC38 cells and were subsequently randomized into control, PT-112, anti-PD-L1 antibody, or combination treatment. Bars are normalized to the control group.
FIG. 9 illustrates the effect of various treatments on the ratios of different cell populations from tumor biopsies in a mouse allograft experiment using the MC38 cell line, where mice were randomized into vehicle control, PT-112, anti-PD-L1 antibody, and combination treatment groups. […]
To better understand the effects of the different treatments on T cell populations, additional immuno-competent mice were implanted with MC38 cells and were subsequently randomized into control, PT-112, anti-PD-L1 antibody, or combination treatment arms (n=5). After 2 weeks of treatment (PT-112 @ 90 mg/kg QW and PD-L1 @ 10 mg/kg BIW), tumor tissue was removed and analyzed via FACS for differences in white blood cell populations. […]
Not all white blood cell populations are immunogenic. […] To better understand if the changes observed would have a net immunogenic or immunosuppressive effect, ratios of different cell populations were calculated (FIG. 9).

[9] = mouse model of acute neurotoxicity (cold hypersensitivity); assay type: in vivo; settings: single dose, PT-112 at twice the molar concentration of oxali
[10] = tested on: nucleotide excision repair (NER)-deficient HCT116 cells and their isogenic NER-proficient counterparts; assay: potency in NER-deficient versus NER-proficient HCT116 cells; assay type: cell-based
Source text: as §1

[11] = tested on: HCT116 colon cancer model; assay: phosphorylation of H2AX and induction of Ku70 in HCT116 colon cancer model; assay type: cell-based; settings: versus oxali at equipotent concentrations
Source text: as §1

[12] = tested on: immunogenic cell death (ICD); assay: effects indicative of ICD induction versus oxali; assay type: cell-based; settings: compared with oxali
Source text: as §1

live tumor cells = assay: vaccination experiment with live tumor cell challenge; assay type: in vivo, mice; settings: vaccine from agent-killed cells
Method: FIG. 4 illustrates the survival advantage conferred when different vaccines are given to mice before being challenged with a live tumor cell injection. Vaccines are composed of dead and dying cancer cells of the same cell line exposed to different anti-cancer agents, killed by exposure to different agents.
The “gold standard” for ICD validation is a vaccine experiment, where mice are injected with dead cell material generated by exposing cells to an anticancer agent. Importantly, the anti-cancer agent is removed, and the mice are only injected with the dead and dying cells. Subsequently, after 1-2 weeks, mice are then challenged with an injection of live tumor cells of the same type used to create the vaccine.
This vaccination experiment was conducted using four different treatment groups, one unvaccinated negative control, and three receiving vaccines from the use of different agents: cisplatin (a negative control, non-ICD inducer), mitoxantrone (a positive control ICD inducer), and PT-112 (the experimental arm) (FIG. 4). The vast majority of mice (80-90%) in both negative control groups developed tumors rapidly (within one week).

[13] = data from the literature; cited from earlier work

## O=P1(O)OP(=O)(O)[O][Pt]2([NH][C@@H]3CCCC[C@H]3[NH]2)[O]1 (stereo partly drawn) [PT-112, trans-(R,R)-1,2-cyclohexanediamine(pyrophosphato) platinum(II)]
Cancer cell models
  Pt accumulation in DNA and whole cell extracts: significantly less Pt accumulation
[1]
  accumulation of Pt in dorsal root ganglia (DRG) nerve tissue: minimal accumulation
  nerve conduction velocity (NCV): no significant loss
CXF280 colon PDX
  tumor growth: Sustained tumor growth delay
[2]
  tumor growth: Sustained tumor growth delay
p53 and MDM2
  impact on p53 and MDM2 levels: noteworthy impact
Murine TSA cells
  release of ATP into the media: robust release of ATP
CT26 cells
  changes in cytotoxic T cell (CD8+) and helper T cell (CD4+) populations in tumor: large changes
  ratio of immunogenic to immunosuppressive T cell populations: favorable changes
[3]
  HMGB1 release into the media: significantly higher
[4]
  anti-CRT antibody staining (cell surface CRT): greater effect
[5]
  fraction of Pt in the plasma ultrafiltrate (PUF) relative to total plasma Pt: 72.8%
  stability in plasma (parent by LC-MS/MS): stability of PT-112 in plasma
[6]
  IC50 values compared with cis, carbo and oxali: superior to cis, carboplatin (carbo), and oxali in a majority of cell lines
[7]; rats
  tolerated concentration relative to cis: 7 fold
[7]; rats, PT-112 at 7-fold higher concentrations than cis
  effects on renal function (creatinine, BUN and GFR): minimal effects
[8]
  response at higher doses: Cases of complete response were observed
MC38 cells; MC38, 2 weeks, PT-112 90 mg/kg QW, PD-L1 10 mg/kg BIW, FACS
  changes in white blood cell populations incl. cytotoxic T cells (CD8+) and helper T cells (CD4+) in tumor: large changes
MC38 cells; MC38, FACS
  ratios of helper T cells and cytotoxic T cells to regulatory T cells: positive effects
[9]
  cold hypersensitivity: indistinguishable from untreated controls
[10]
  potency difference between NER-deficient and NER-proficient HCT116 cells: did not differ significantly
[11]
  effect on induction of Ku70: minimal effect
  effect on the phosphorylation of H2AX: minimal effect
[12]
  effects indicative of ICD induction (release of HMGB1 and ATP, cell surface exposure of CRT, suppression of STATS): significantly greater extent than oxali

## N.N.[Cl][Pt][Cl] [cisplatin, reference compound]
[7]; rat, in vivo
  effects on renal function (creatinine, BUN and GFR): caused morbidity
[10]
  potency difference between NER-deficient and NER-proficient HCT116 cells: NER-competent cells were less sensitive
Live tumor cells; within one week
  mice that developed tumors: 80-90%

## O=C1c2c(O)ccc(O)c2C(=O)c2c(NCCNCCO)ccc(NCCNCCO)c21 [mitoxantrone]
Live tumor cells; PT-112 group for over one month
  mice remaining tumor free: 40%

## O=C1[O][Pt]2([NH][C@@H]3CCCC[C@H]3[NH]2)[O]C1=O [oxaliplatin, reference compound]
[13]
  fraction of Pt in the plasma ultrafiltrate (PUF): 28.2%
[1]
  nerve conduction velocity (NCV): dose-dependent declines
[3]
  HMGB1 release into the media: elevated levels of HMGB1 in the media versus untreated control cells
[4]
  anti-CRT antibody staining (cell surface CRT): enhanced staining relative to control
